Laboratory results taken from patent publication US9919023B2, “Anti-androgen peptides and uses thereof in cancer therapy” (Cancer Research Technology Limited, priority 2007, dated 2018).
Peptide text beside a SMILES is read from it.

Key:
MCF-7 cells [1] = assay: BrdU incorporation (DNA synthesis), estradiol-stimulated MCF-7 cells; type: cell-based, human; conditions: 24 hrs
Description: (§1) DNA synthesis is assayed in single cells by a 6 h pulse with 100 μM (final concentration) BrdU (Boeheringer). Cells on coverslips are fixed, and incubated with diluted (1:1 in PBS) fluorescein-conjugated mouse anti-BrdU mAbs (clone BMC9318 from Boheringer Mannheim Co., IN), then washed three times with PBS. […] All coverslips are washed three times in PBS, inverted and mounted in Moviol (Calbiochem, CA) on glass slides. Slides are analyzed using an Axiophot fluorescent microscope (Zeiss).

LNCaP cells [2] = assay: BrdU incorporation (DNA synthesis), R1881-stimulated LNCaP cells; type: cell-based, human; conditions: for residual BrdU incorporation: R1881 alone 54%, untreated 20%
AR association with Src = target: T1, AR association with Src (Homo sapiens, UniProt P12931); assay: Androgen-stimulated AR association with Src, anti-Src co-immunoprecipitation in LNCaP cells; type: cell-based
T1 construct: Cell lysates are submitted to immuno-precipitation using mouse monoclonal anti-Src antibodies; endogenous in cells; host or cells: LNCaP
Description: Human prostate cancer LNCaP cells were left unstimulated or stimulated for 2 min with 10 nM R1881 alone or in the presence of 1000-fold excess of Casodex or 1 nM of the SH3-binder peptide or the shuffled sequence of peptide SEQ.ID NO.1 (SEQ.ID NO.7). Cell lysates were incubated with anti-Src antibodies, and the immunoprecipitated proteins resolved on SDS-PAGE and transferred onto nitrocellulose filters. Filters were then blotted with either anti-Src or anti-human AR antibodies to detect AR associated with Src. […] Lane 1: unstimulated cells; lane 2: R1881 treated cells; lane 3: cells treated with R1881 in the presence of Casodex (Cdx); lane 4: cells treated with R1881 in the presence of the SH3 binder peptide (SH3, SEQ.ID NO.1); lane 5: cells treated with R1881 in the presence of the shuffled sequence of peptide SEQ.ID NO.1 (Ss, SEQ.ID NO.7).
Cells are then stimulated with 10 nM R1881 alone or in the presence of a 1000-fold excess of the anti-androgen Casodex or 1 nM of the SEQ.ID NO.1 peptide or 1 nM of the shuffled sequence of peptide SEQ.ID NO.1 (SEQ.ID NO.7) for 2 min, and lysed. Cell lysates are submitted to immuno-precipitation using mouse monoclonal anti-Src antibodies (Clone 327, Oncogene Science, Manhasset, N.Y.). The immuno-precipitated proteins are resolved on a 12% SDS-polyacrylammide gel and thereafter transferred onto nitrocellulose filters. […]

androgen receptor = assay: ARE luciferase reporter gene transcription in LNCaP cells; type: cell-based, human
Description: LNCaP cells were transfected with a reporter gene encoding the luciferase gene under the control of an androgen responsive element (ARE 3416) (Castoria et al., 2003). Six hrs after transfection, cells were kept for further 24 hrs in the absence or in presence of 10 nM R1881 alone or with a 1000 fold excess of Casodex or with 1 nM SH3 binder peptide (SEQ.ID NO.1) or 1 nM shuffled sequence of peptide SEQ.ID NO.1 (SEQ.ID. NO.7). Luciferase activity was then assayed in cell lysates. Bar1: unstimulated cells; Bar 2: R1881 treated cells; Bar 3: cells treated with R1881 in the presence of Casodex (Cdx); Bar 4: cells treated with R1881 in the presence of the SH3 binder peptide (SH3); Bar 5: cells treated with R1881 in the presence of the shuffled sequence of peptide SEQ.ID NO.1 (Ss).
LNCaP cells, kept in 5% CO2 in air in RPMI 1640 medium (GIBCO) supplemented with phenol-red, 2 mM L-glutamine (GIBCO), penicillin (100 U/ml), gentamicin (50 μl/ml), insulin and 10% fetal calf serum, are transfected with a reporter gene engineered in a pSG5 expression vector with the luciferase gene under the control of an androgen responsive element (ARE3416) (Verrijdt et al., 2000). […]

LNCaP cells [3] = assay: BrdU incorporation (DNA synthesis), EGF-stimulated LNCaP cells; type: cell-based, human; conditions: 24 hrs
Description: FIG. 1C. DNA synthesis inhibition of EGF-stimulated human prostate cancer cells by SH3 binder peptide modeled from AR (SEQ. ID NO.1). LNCaP cells were grown in phenol red-free medium added with charcoal-treated serum as previously described and treated for 24 hrs with 100 ng/ml EGF alone or in the presence of a 10 μM of the anti-estrogen ICI 182,780 or 1 nM of the AR-derived (SH3-binder) peptide (SEQ.ID NO.1) or the shuffled sequence of peptide SEQ.ID NO.1 (SEQ.ID NO.7). At the end of the growth factor treatment BrdU incorporation in the cells untreated (control) or treated with EGF alone (EGF) or in the presence of ICI 182,780 (ICI) or the SH3-binder (SH3) or the shuffled sequence of peptide SEQ.ID NO.1 (Ss) was assayed. Data are reported as percentage of cells incorporating BrdU.
(§2) The peptide SEQ.ID NO.1 is finally assayed for its ability to reduce or inhibit EGF induced DNA synthesis in human prostate cancer LNCaP (1C) and MCF-7 (1D) cells. The LNCaP and MCF-7 cells are cultured as described above, then seeded onto coverslips. Cells are then stimulated with 100 ng/ml of highly purified EGF (Boheringer, Calif.) in the absence or in presence of 1 nM peptide SEQ.ID NO.1.
as §1

MCF-7 cells [4] = assay: BrdU incorporation (DNA synthesis), EGF-stimulated MCF-7 cells; type: cell-based, human; conditions: 24 hrs
Description: FIG. 1D. […] MCF-7 cells were grown in phenol red-free medium added with charcoal-treated serum as previously described and treated for 24 hrs with 100 ng/ml EGF alone or in the presence of a 10 μM of the anti-estrogen ICI 182,780 or 1 nM of the AR-derived (SH3-binder) peptide or the shuffled sequence of peptide SEQ ID NO.1 (SEQ.ID. NO.7). At the end of the growth factor treatment, BrdU incorporation in the cells untreated (control) or treated with EGF alone (EGF) or in the presence of ICI 182,780 (ICI) or SH3-binder (SH3) or shuffled sequence of peptide SEQ.ID NO.1 (Ss) was assayed. Data are reported as percentage of cells incorporating BrdU.
as §2, §1

ER association with Src = target: T2, ER association with Src (Homo sapiens, UniProt P12931); assay: Estrogen-stimulated ER/AR association with Src, anti-Src co-immunoprecipitation in MCF-7 cells; type: cell-based
T2 construct: Cell lysates are submitted to immunoprecipitation using mouse monoclonal anti-Src antibodies; endogenous in cells; host or cells: MCF-7
Description: Human breast cancer MCF-7 cells were left unstimulated or stimulated for 2 min with 10 nM 17β estradiol alone or in the presence of a 1000 fold excess of ICI 182,780 or 1 nM of the SH3 binder peptide or the shuffled sequence of peptide SEQ.ID NO.1 (SEQ.ID NO.7). Cell lysates were incubated with anti-Src antibodies, immunoprecipitated proteins were resolved on SDS-PAGE and transferred onto nitrocellulose filters. Filters were then blotted with either anti-Src or anti-human AR antibodies to detect AR associated with Src.
Cells are suspended in 1 ml of lysis buffer: 50 mM Tris-HCl, pH 7.40, containing 5 mM MgCl2, 150 mM NaCl, 0.5% Triton X-100 and left under gentle shaking for 2 min, at 4° C. Suspensions are then centrifuged at about 800 g for 30 min and supernatant collected and used for immunoprecipitation.
To address this point mammary cancer derived MCF-7 cells are grown in 5% CO2 in air in DMEM medium (GIBCO) supplemented with phenol-red, 2 mM L-glutamine (GIBCO), penicillin (100 U/ml), gentamicin (50 μl/ml), hydrocortisone (3.75 ng/ml) insulin (0.2 U.I./ml) and 5% fetal calf serum. The cells are then kept in DMEM without phenol red and supplemented with glutamine, penicillin, gentamicin and insulin as above and containing 5% charcoal-stripped fetal calf serum for additional 4 days. […]

Cyclin D1 [5] = assay: Androgen-induced cyclin D1 expression, western blot in MCF-7 and LNCaP cells; type: cell-based, human
Description: Inhibition of androgen-induced cyclin D1 expression by AR-derived Src-SH3 binder peptide (SEQ.ID NO.1). Quiescent MCF-7 and LNCaP cells were left untreated or treated for 8 hrs with 10 nM R1881 alone or in the presence of 5 μM PI3-kinase inhibitor LY294,002 or 1 nM AR-derived SH3 binder or the shuffled sequence of peptide SEQ.ID NO.1 (SEQ.ID. NO.7). Protein from cell lysates were resolved on SDS-PAGE, then transferred to nitrocellulose filters. […] Lanes 1: unstimulated cells; lanes 2: R1881 treated cells; lanes 3: cells treated with R1881 in the presence of LY294,002 (LY); lanes 4: cells treated with R1881 in the presence of AR-derived (SH3-binder) peptide (SH3); lane 5: cells treated with R1881 in the presence of the shuffled sequence of peptide SEQ.ID NO.1 (Ss).
To verify this possibility, SH3 binder peptide (SEQ.ID NO.1) is added to MCF-7 and LNCaP cells stimulated with the androgen. MCF-7 and LNCaP cells are routinely grown as described above. Cells are then kept for at least 4 days in red phenol-free medium supplemented as described above and added with dextran-coated charcoal treated fetal calf serum to minimize steroid concentration.

Cyclin D1 [6] = assay: Estrogen-induced cyclin D1 expression, western blot in MCF-7 and LNCaP cells; type: cell-based, human
Description: Quiescent MCF-7 and LNCaP cells were left untreated or treated for 8 hrs with 10 nM 17β estradiol alone or in the presence of 5 μM PI3-Kinase inhibitor LY294,002 or 1 nM of the SH3 binder or the shuffled sequence of peptide SEQ.ID NO.1 (SEQ.ID NO.7). Protein from cell lysates were resolved on SDS-PAGE, then transferred to nitrocellulose filters. […] Lanes 1: unstimulated cells; lanes 2: estradiol treated cells; lanes 3: cells treated with estradiol in the presence of LY294,002 (LY); lane 4: cells treated with estradiol in the presence of SH3-binder peptide (SH3); lane 5: cells treated with estradiol in the presence of the shuffled sequence of peptide SEQ.ID NO.1 (Ss).
To test the effect of SH3 binder peptide (SEQ.ID NO.1) on estrogen stimulated Cyclin D1 expression, this peptide is added to LNCaP and MCF-7 cells stimulated with 10 nM 17β-estradiol (FIG. 3B). MCF-7 and LNCaP cells are routinely grown as reported above. Cells are then kept for at least 4 days in red phenol-free medium supplemented as described above and added with dextran-coated charcoal treated fetal calf serum to minimize steroid contamination.

LNCaP cell xenografts = LNCaP cell xenografts in nude male mice; conditions: peptide intraperitoneally on alternate days, LNCaP xenograft mice; data not shown
MCF-7 cell xenografts = MCF-7 cell xenografts in nude male mice; conditions: peptide intraperitoneally on alternate days, MCF-7 xenograft mice; data not shown
[7] = 1 nM peptide with 10 nM R1881, 24 hrs
[8] = 1 nM peptide with 10 nM 17β estradiol

C[C@]12CC[C@@H]3c4ccc(O)cc4CC[C@H]3[C@@H]1CC[C@@H]2O [17β estradiol]
BrdU incorporation rate (MCF-7 cells [1]; 10 nM 17β estradiol alone, untreated cells 8%, averaged from six assays): 61%

CC(O)(CS(=O)(=O)c1ccc(F)cc1)C(=O)Nc1ccc(C#N)c(C(F)(F)F)c1 (stereo not shown) [Casodex, biclutamide]
residual BrdU incorporation (LNCaP cells [2]; 1000-fold excess with 10 nM R1881, 24 hrs): 21% | hormone stimulated Src-AR association (AR co-immunoprecipitated by anti-Src antibodies) (AR association with Src; 1000-fold excess with 10 nM R1881, 2 min): abolished | androgen induced transcription of reporter gene (androgen receptor; 1000 fold excess with 10 nM R1881, 24 hrs): completely inhibits

C[C@]12CC[C@@H]3c4ccc(O)cc4C[C@@H](CCCCCCCCC[S+]([O-])CCCC(F)(F)C(F)(F)F)[C@H]3[C@@H]1CC[C@@H]2O (stereo partly shown) [ICI 182,780]
residual BrdU incorporation (MCF-7 cells [1]; 1000-fold excess with 10 nM 17β estradiol, E2 alone 61%, untreated 8%): 7% | residual BrdU incorporation (LNCaP cells [3]; 10 μM with 100 ng/ml EGF, EGF alone 21%, untreated 8%): 7% | residual BrdU incorporation (MCF-7 cells [4]; 10 μM with 100 ng/ml EGF, EGF alone 36%, untreated 6%): 9% | association between ER and Src (co-immunoprecipitation by anti-Src antibodies) (ER association with Src; 1000-fold excess with 10 nM 17β estradiol): abolished

O=c1cc(N2CCOCC2)oc2c(-c3ccccc3)cccc12 [LY 294,002]
hormone stimulated cyclin expression (Cyclin D1 [5]; 5 μM with 10 nM R1881, MCF-7 and LNCaP): abolishes | hormone stimulated cyclin expression (Cyclin D1 [6]; 5 μM with 10 nM 17β estradiol): abolishes

CC(C)(C)n1nc(-c2ccc(Cl)cc2)c2c(N)ncnc21 [PP2]
hormone stimulated cyclin expression (Cyclin D1 [5]; with 10 nM R1881, concentration not given, data not shown): abolishes

C[C@]1(O)CC[C@H]2[C@@H]3CCC4=CC(=O)CCC4=C3C=C[C@@]21C [R1881]
BrdU incorporation rate (LNCaP cells [2]; 10 nM R1881 alone, 24 hrs, untreated cells 20%, averaged from six assays): 54%

CC[C@H](C)[C@H](NC(=O)[C@H](CCCNC(=N)N)NC(=O)[C@H](C)NC(=O)[C@H](Cc1c[nH]cn1)NC(=O)[C@@H]1CCCN1C(=O)[C@H](Cc1c[nH]cn1)NC(=O)[C@@H]1CCCN1C(=O)[C@@H]1CCCN1C(=O)[C@@H]1CCCN1C(C)=O)C(=O)N[C@@H](CCCCN)C(N)=O [SEQ.ID NO.1, Ac-Pro-Pro-Pro-His-Pro-His-Ala-Arg-Ile-Lys-NH2] (Ac-PPPHPHARIK-NH2)
weight of mice vs vehicle (LNCaP cell xenografts): No difference | weight of mice vs vehicle (MCF-7 cell xenografts): No difference

Ac-His-Pro-Lys-Pro-Ala-Arg-Ile-Pro-His-Pro-NH2 (Ac-HPKPARIPHP-NH2) [SEQ.ID NO.7]
residual BrdU incorporation (LNCaP cells [2]; [7]): 48% | effect on estrogen-induced DNA synthesis (MCF-7 cells [1]; [8]): not significant effect | BrdU incorporation (residual) (LNCaP cells [3]; 1 nM peptide with 100 ng/ml EGF, EGF alone 21%, untreated 8%): 15% | BrdU incorporation (residual) (MCF-7 cells [4]; 1 nM peptide with 100 ng/ml EGF, EGF alone 36%, untreated 6%): 48% | hormone stimulated Src-AR association (AR co-immunoprecipitated by anti-Src antibodies) (AR association with Src; 1 nM peptide with 10 nM R1881, 2 min): only slightly affected | hormone stimulated receptor-Src association (co-immunoprecipitation by anti-Src antibodies) (ER association with Src; [8]): only slightly affected | Cyclin D induction by R1881 (Cyclin D1 [5]; 1 nM peptide with 10 nM R1881, 6 hrs, MCF-7 and LNCaP): only partially reduces | Cyclin D induction by estrogen (Cyclin D1 [6]; 1 nM peptide with 10 nM 17β estradiol, 6 hrs): a little effect | transcriptional activity of AR (luciferase reporter) (androgen receptor; [7]): neither the SH3 peptide nor the shuffled sequence of peptide SEQ. ID NO.1 affect

EGF: highly purified EGF, growth factor used as stimulus
BrdU incorporation (LNCaP cells [3]; 100 ng/ml EGF alone, untreated cells 8%): 21% | BrdU incorporation (MCF-7 cells [4]; 100 ng/ml EGF alone, untreated cells 6%): 36%
